Assay results reported in patent US20250361546A1, “SCREENING METHODS FOR RNA-CONTROLLING COMPOUNDS” (Veritas In Silico Inc., priority 2018, published 2025).

What was measured:
Type in all cases: binding
A-4-G_Cy5/BHQ2 = test: FRET probe Tm measurement, single probe and 4-probe mixture (Example 5); conditions: 100 μM compound
Description: (§1) Four FRET probes with fluorescent modifications corresponding to four wavelengths detectable by a measuring device (CFX384 Touch manufactured by Bio-Rad) were prepared. • FRET probe with Cy5 at the 5′ end and BHQ2 modification at the 3′ end
(§2) The final levels were 50 nM RNA, 20 mM phosphate buffer (pH 6 5), 50 mM KCl, 1% DMSO, 0.1 μg/μl Bovine Serum Albumin (Takara Bio) or 0.05%-0.1% Tween-20, or 0.05%-0.1% Triton X-100 per probe. In addition, 10 μl solutions were mixed to make 100 μM compound if small compounds were included and incubated at room temperature for 10 minutes.
(§3) The solutions were dispensed into a 384 well plate, and the plate was kept in a qPCR machine (manufactured by CFX 384 Touch (Bio-Rad Co., Ltd.) for 15 seconds after the temperature was raised to 95° C., which was rapidly cooled to 4° C. and kept for 2 minutes, and then kept at 25° C. for 5 minutes. Then, it was raised to over 95° C. about 40 minutes, and the fluorescence output was measured every 1° C. in 10 seconds. For numerical differentiation of the fluorescence output, a total of seven points from the measured temperature T to plus or minus 3° C. were approximated to a straight line by the least squares method, and the slope was defined as the slope (D1) at the point of the measured temperature T. Similarly, the value of D1 was again subjected to numerical differentiation in the same manner, and the slope (D2) at the point of the measured temperature T was obtained. Here, in parts where the D1 value was 10 or more, the measured temperature T_D1MAX was obtained with D1 at maximum. A total of seven points from this measured temperature T_D1MAX to plus and minus 3° C. were used to calculate the value of T_INF at Y=0 by setting X as T and Y as D2 when the seven points were actually approximated to the line by least squares, and this was set as the Tm value. In addition, the difference (Tm−Tm_NO) in the Tm value (Tm_NO) between wells containing the compound and wells without it was acquired as ΔTm.
(§4) This work was carried out for single-probe wells and four-probe wells, respectively, to obtain the Tm and ΔTm values shown in Table 6 below.

MGA-N_FAM/BHQ1 = test: as above; conditions: 100 μM compound
Description: • FRET probe with FAM at the 5′ end and BHQ1 modification at the 3′ end
as §2, §3, §4

FMNA_Alexa532/BHQ1 = test: as above; conditions: 100 μM compound
Description: • FRET probe with HEX-equivalent Alexa 532 at the 5′ end and BHQ1 modification at the 3′ end
as §2, §3, §4

[1] = tested on: A-4-G_Cy5/BHQ2, MGA-N_FAM/BHQ1, FMNA_Alexa532/BHQ1, TAR21-G3_Texas Red/BHQ2; test: FRET probe Tm measurement, summary over four probes (Example 5); conditions: both single probes and mixed probes; 100 μM compound
Description: as §1
as §2, with “minutes. […]” for “minutes.”

TAR21-G3_Texas Red/BHQ2 = test: FRET probe Tm measurement, single probe and 4-probe mixture (Example 5); conditions: 100 μM compound
Description: • FRET probe with Texas Red at the 5′ end and BHQ2 modification at the 3′ end
as §2, §3, §4

A-4-G_Cy5/BHQ2 probe = test: FRET probe Tm measurement with single compounds and compound mixture (Example 6); conditions: for ΔTm: 100 μM compound per compound, 50 nM RNA
Description: (§5) A-4-G_Cy5/BHQ2 probe and the Survivin-native+type probe modified with Cy5 at the 5′ end and BHQ2 at the 3′ end were prepared as shown in Examples 2 and 5.
(§6) The final levels were 50 nM RNA, 20 mM phosphate buffer (pH 6 5), 50 mM KCl, 1% DMSO, 0.1 μg/μl Bovine Serum Albumin (Takara Bio), or 0.05%-0.1% Tween-20, or 0.05%-0.1% Triton X-100. Further, if a low-molecular weight compound was included, 10 μl solutions were mixed to give 100 μM compound per compound and incubated at room temperature for 10 minutes.
as §3

[2] = tested on: Survivin-native+ type probe (Cy5/BHQ2); test: as above; conditions: for ΔTm: 100 μM compound per compound, 50 nM RNA
Description: as §5, §6, §3

[3] = 4-probe mixture, Cy5 detection, 50 nM RNA per probe
[4] = 4-probe mixture, FAM detection, 50 nM RNA per probe
[5] = 4-probe mixture, HEX detection, 50 nM RNA per probe
[6] = 4-probe mixture, Texas Red detection, 50 nM RNA per probe

## O=C(O)c1cn(C2CC2)c2cc(N3CCNCC3)c(F)cc2c1=O [CPFX, ciprofloxacin]
A-4-G_Cy5/BHQ2; [3]
  Tm (° C.) with compound: 68.96 °C
  ΔTm (° C.): 1.46 °C
A-4-G_Cy5/BHQ2; Single probe, 50 nM RNA
  Tm (° C.) with compound: 68.78 °C
  ΔTm (° C.): 1.41 °C
MGA-N_FAM/BHQ1; [4]
  Tm (° C.) with compound: 74.22 °C
  ΔTm (° C.): 0.11 °C
MGA-N_FAM/BHQ1; Single probe, 50 nM RNA
  Tm (° C.) with compound: 74.03 °C
  ΔTm (° C.): 0.33 °C
FMNA_Alexa532/BHQ1; [5]
  Tm (° C.) with compound: 78.07 °C
  ΔTm (° C.): −0.02 °C
FMNA_Alexa532/BHQ1; Single probe, 50 nM RNA
  Tm (° C.) with compound: 78.03 °C
  ΔTm (° C.): 0.09 °C
[1]
  Tm increase (in words): Tm increase was obtained only at wavelengths corresponding to A-4-G_Cy5/BHQ2
TAR21-G3_Texas Red/BHQ2; [6]
  Tm (° C.) with compound: 85.75 °C
  ΔTm (° C.): −0.02 °C
TAR21-G3_Texas Red/BHQ2; Single probe, 50 nM RNA
  Tm (° C.) with compound: 85.80 °C
  ΔTm (° C.): 0.07 °C

## CC1CCc2c(N3CCC(O)CC3)c(F)cc3c(=O)c(C(=O)O)cn1c23 (centres unmarked) [NDFX, nadifloxacin]
A-4-G_Cy5/BHQ2 probe
  change of Tm value (in words): does not cause changes in the Tm value
A-4-G_Cy5/BHQ2 probe; Table 7, A-4-G
  ΔTm: 0.15
A-4-G_Cy5/BHQ2 probe; rounded
  ΔTm: 0.2 °C
[2]
  change of Tm value (in words): does not cause changes in the Tm value
[2]; Table 7, SV-NL
  ΔTm: 0.01
[2]; rounded
  ΔTm: 0.0 °C
